Results on three molecules are retold here after article PMC9858427, “Design, synthesis and biological evaluation of 2-((4-sulfamoylphenyl)amino)-pyrrolo[2,3-d]pyrimidine derivatives as CDK inhibitors” (Journal of Enzyme Inhibition and Medicinal Chemistry, 2023).

A value given as a limit tells only on which side of the number the result lay.

Series [1] concerns MIA PaCa-2 cells. Put plainly: MTT proliferation assay in MIA PaCa-2 cells. The conditions noted are these: Homo sapiens, MIA PaCa-2, 72 h, 72 h drug exposure. It is filed as cell-based, human. The protocol:
(§1) The human pancreatic carcinoma MIA PaCa-2 was purchased from China Centre for Type Culture Collection, AsPC-1 and BxPC-3 cell Lines were purchased from Cell Centre of the Institute of Basic Medical Sciences, Chinese Academy of Medical Sciences and Peking Union Medical College. PANC-1 was kindly provided by Nankai Hospital (Tianjin, China). These cancer cell lines were cultured according to the manufacturer’s instruction.
(§2) Then 3-fold diluted concentrations of tested compound were added respectively which was dissolved by DMSO in the ratio of 1:1000. After indicated incubation period, MTT was added to each well and incubated for 4 h at 37 °C. Then, the supernatant was discarded gently, and the precipitate was dissolved in 100 µL of DMSO in each well. The absorbance (A) at 570 nm was detected with a microplate reader (Multiskan MK3; Thermo Fisher Scientific, MA, USA). Vehicle-treated cells were served as the control for the calculation of relative cell viability (%) of treated group at single concentration. IC50 value was calculated directly from the inhibition curve of serial dilution of test compound and was expressed as mean ± SD using the SPSS statistical software (SPSS17.0 Inc., Chicago, IL, USA).

A further series relates to AsPC-1. In words: MTT proliferation assay in AsPC-1 cells. Conditions: Homo sapiens, ASPC1; 72 h drug exposure. It counts as cell-based. Here is the method: as §1
as §2, with “Cells were planted in 96-well plates at a density of 3000–4000 cells per well and incubated at 37 °C in a humidified CO2 incubator for 24 h. Then 3-fold” for “Then 3-fold”
On the technique in general: Formazan colour is commonly taken as a measure of viable cells.

A further series relates to BxPC-3. In words: MTT proliferation assay in BxPC-3 cells. It counts as cell-based. The conditions noted are these: Homo sapiens, 72 h drug exposure. Here is the method:
as §1
as §2, with “Cells were planted in 96-well plates at a density of 3000–4000 cells per well and incubated at 37 °C in a humidified CO2 incubator for 24 h. Then 3-fold” for “Then 3-fold”

Another series relates to PANC-1. Put plainly: MTT proliferation assay in PANC-1 cells. It counts as cell-based. The conditions noted are these: Homo sapiens, 72 h drug exposure. Here is the method:
as §1
as §2, with “Cells were planted in 96-well plates at a density of 3000–4000 cells per well and incubated at 37 °C in a humidified CO2 incubator for 24 h. Then 3-fold” for “Then 3-fold”

In series [2] the test system is AsPC-1 cell-derived xenograft. In words: AsPC-1 cell-derived xenograft mice model, in vivo efficacy. The arrangement: species or system BALB/C nude mice. Conditions: GCTB 50 mg/kg intraperitoneal once a week, 3 weeks; vs vehicle group. Here is the method: Synthetic compound was administered as a suspension or solution in the saline with 5% DMSO and 5% Solutol. GCTB was dissolved in saline. All of the experiments were approved by the Institutional Animal Care and Use Committee of Institute of Medicinal Biotechnology. All experiments were carried out under ethics committee–approved protocols and in compliance with the guidelines for the care of laboratory animals of Institute of Medicinal Biotechnology, CAMS.
AsPC-1 (5 × 10^7) cells were injected subcutaneously into 5-week-old female BALB/C nude mice (Beijing Huafukang Bioscience CO. Inc, Beijing, China). After two weeks, mice were omogenizamised and treated with vehicle, gemcitabine (GCTB), or test compound. Blank solvent and test compound was administered by oral gavage (10 ml/kg) with once daily of five days and followed by 2 days off in each week, GCTB was given once a week by 50 mg/kg intraperitoneal injection. Mice were inspected daily for clinical signs, both tumour diameters and body weight were determined 3 times weekly. Tumour volumes were calculated according to the formula “tumor volume (V) = length × width^2/2”. Median TGI values were calculated as follows: TGI = 100 × [1-(Vtreated group at day20-Vtreated group at day1)/(Vvehicle group at day20-Vvehicle group at day1)]. Data were plotted as average with SD in the graphical representation of tumour growth. The p values obtained from the two-way ANOVA analysis. Meanwhile, main organs of mice were collected, formalin-fixed and paraffin-embedded for pathological analysis by H&E dyeing. For drug concentration determination, blood and tumour tissues were collected at indicated time after single administration. Standard curve of test compound was established in the acquisition mode of SIM using a SHIMADZU LC-MS instrument. […] After centrifugation at 10 × 10^3 for 5 min, the supernatant was injected directedly into LC-MS instrument for quantification of drug concentration. […] After centrifugation under same condition as plasma samples, supernatant was separated and injected into LC-MS for quantification.

Series [3] in a line: Body weight and H&E pathology of main organs in xenograft mice. It is filed as in vivo, BALB/C nude mice. The conditions noted are these: after 3-week treatment. Here is the method: AsPC-1 (5 × 10^7) cells were injected subcutaneously into 5-week-old female BALB/C nude mice (Beijing Huafukang Bioscience CO. Inc, Beijing, China). After two weeks, mice were omogenizamised and treated with vehicle, gemcitabine (GCTB), or test compound. Blank solvent and test compound was administered by oral gavage (10 ml/kg) with once daily of five days and followed by 2 days off in each week, GCTB was given once a week by 50 mg/kg intraperitoneal injection. Mice were inspected daily for clinical signs, both tumour diameters and body weight were determined 3 times weekly. Tumour volumes were calculated according to the formula “tumor volume (V) = length × width^2/2”. Median TGI values were calculated as follows: TGI = 100 × [1-(Vtreated group at day20-Vtreated group at day1)/(Vvehicle group at day20-Vvehicle group at day1)]. Data were plotted as average with SD in the graphical representation of tumour growth. The p values obtained from the two-way ANOVA analysis. Meanwhile, main organs of mice were collected, formalin-fixed and paraffin-embedded for pathological analysis by H&E dyeing. For drug concentration determination, blood and tumour tissues were collected at indicated time after single administration. Standard curve of test compound was established in the acquisition mode of SIM using a SHIMADZU LC-MS instrument. Blood kept in anticoagulant tube coated with heparin sodium was centrifuged to provide the supernatant, which was followed by added with 3-fold acetonitrile to precipitate plasma protein. After centrifugation at 10 × 10^3 for 5 min, the supernatant was injected directedly into LC-MS instrument for quantification of drug concentration. As for tumour tissues, omogenizationation (Precellys Evolution) was done after weighed accurately and added with 3-fold saline. After centrifugation under same condition as plasma samples, supernatant was separated and injected into LC-MS for quantification.

In a further series the target is CDK9/cyclinT1 (Homo sapiens, UniProt P50750). In words: CDK9/cyclinT1 Lance Ultra Assay, single concentration screen. It counts as biochemical. The conditions noted are these: 50 nM, ATP concentration at Km, read-out: CDK9 inhibitory rate (%) @ 50nM. Here is the method:
(§3) CDK kinase activity (IC50 values and inhibitory rate at single concentration) was measured using the kinase profiling services (Shanghai ChemPartner Co., Ltd). Compounds were sent to ChemPartner as a solution in DMSO at concentration of 10 mM.

Series [4] is described as follows: Solubility / precipitation observations. It counts as physicochemical.
Series [5] has as its target T1, CDK1 (Homo sapiens, UniProt P06493). In words: CDK1 kinase IC50, Mobility shift assay. It is filed as biochemical. Here is the method: as §3
Series [6] deals with T2, CDK2 (Homo sapiens, UniProt P24941). Put plainly: CDK2 kinase IC50, Mobility shift assay. It is filed as biochemical. The protocol:
as §3

In series [7] the target is T3, CDK4 (Homo sapiens, UniProt P11802). Put plainly: CDK4 kinase IC50, Mobility shift assay. It counts as biochemical. Here is the method:
as §3

The target in series [8] is T4, CDK7 (Homo sapiens, UniProt P50613). In words: CDK7 kinase IC50, Mobility shift assay. It counts as biochemical. The protocol: as §3
T4 sequence (P50613 whole entry): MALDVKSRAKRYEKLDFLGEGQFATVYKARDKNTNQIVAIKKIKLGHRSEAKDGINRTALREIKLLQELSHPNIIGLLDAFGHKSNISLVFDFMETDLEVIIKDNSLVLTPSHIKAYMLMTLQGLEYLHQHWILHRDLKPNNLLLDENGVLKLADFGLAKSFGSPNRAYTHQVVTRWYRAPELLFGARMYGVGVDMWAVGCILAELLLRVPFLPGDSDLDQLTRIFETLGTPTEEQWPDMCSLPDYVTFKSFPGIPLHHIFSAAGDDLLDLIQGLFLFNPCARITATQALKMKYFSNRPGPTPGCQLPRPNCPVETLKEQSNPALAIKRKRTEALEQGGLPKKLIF
T4 sequence (P51946 whole entry partner): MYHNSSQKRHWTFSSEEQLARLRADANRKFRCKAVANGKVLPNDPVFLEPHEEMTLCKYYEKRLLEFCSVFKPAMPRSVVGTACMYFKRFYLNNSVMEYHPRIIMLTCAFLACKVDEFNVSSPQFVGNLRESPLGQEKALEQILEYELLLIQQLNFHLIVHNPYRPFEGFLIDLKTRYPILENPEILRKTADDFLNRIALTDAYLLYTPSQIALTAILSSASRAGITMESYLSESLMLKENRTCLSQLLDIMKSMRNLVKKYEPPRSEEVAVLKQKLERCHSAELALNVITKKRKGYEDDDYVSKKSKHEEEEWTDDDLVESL
T4 sequence (P51948 whole entry partner): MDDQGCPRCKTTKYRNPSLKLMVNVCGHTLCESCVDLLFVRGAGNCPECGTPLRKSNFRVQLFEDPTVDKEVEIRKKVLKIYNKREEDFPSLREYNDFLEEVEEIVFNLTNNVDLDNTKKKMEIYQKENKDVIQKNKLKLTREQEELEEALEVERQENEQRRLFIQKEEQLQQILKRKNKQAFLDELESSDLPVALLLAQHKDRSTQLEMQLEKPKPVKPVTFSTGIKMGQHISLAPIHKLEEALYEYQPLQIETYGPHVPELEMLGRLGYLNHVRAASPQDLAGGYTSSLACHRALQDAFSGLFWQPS
In series [9] the target is T5, CDK9 (Homo sapiens, UniProt P50750). In words: CDK9 kinase IC50, Mobility shift assay. It counts as biochemical. Here is the method:
as §3

For series [10], the target named is T1, CDK1. Put plainly: CDK kinase screening at 1 μM, CDK1. It is filed as biochemical. Conditions: read-out: Inhibitory rate at 1μM: CDK1. Here is the method: as §3
Series [11] deals with T2, CDK2. Put plainly: CDK kinase screening at 1 μM, CDK2. It counts as biochemical. The conditions noted are these: read-out: Inhibitory rate at 1μM: CDK2. The protocol:
as §3

In another series the target is CDK3 (Homo sapiens, UniProt Q00526). Put plainly: CDK kinase screening at 1 μM, CDK3. It is filed as biochemical. Conditions: read-out: Inhibitory rate at 1μM: CDK3. Here is the method:
as §3

Series [12] deals with T3, CDK4. Put plainly: CDK kinase screening at 1 μM, CDK4. Conditions: read-out: Inhibitory rate at 1μM: CDK4. It is filed as biochemical. Here is the method: as §3
In the next series the target is CDK5 (Homo sapiens, UniProt Q00535). In words: CDK kinase screening at 1 μM, CDK5. It counts as biochemical. The conditions noted are these: read-out: Inhibitory rate at 1μM: CDK5. The protocol:
as §3

The target of the next series is CDK6 (Homo sapiens, UniProt Q00534). In words: CDK kinase screening at 1 μM, CDK6. It is filed as biochemical. Conditions: read-out: Inhibitory rate at 1μM: CDK6. Here is the method:
as §3

Series [13] deals with T4, CDK7. In words: CDK kinase screening at 1 μM, CDK7. It is filed as biochemical. The conditions noted are these: read-out: Inhibitory rate at 1μM: CDK7. The protocol: as §3
For another series, the target named is CDK8 (Homo sapiens, UniProt P49336). Put plainly: CDK kinase screening at 1 μM, CDK8. It counts as biochemical. The conditions noted are these: read-out: Inhibitory rate at 1μM: CDK8. Here is the method:
as §3

Series [14] deals with T5, CDK9. Put plainly: CDK kinase screening at 1 μM, CDK9. It counts as biochemical. The conditions noted are these: read-out: Inhibitory rate at 1μM: CDK9. Here is the method:
as §3

The subject of series [15] is MIA PaCa-2 cells. On the set-up: method as in PMID 33316409. Conditions: previous study ref 23; cited from earlier work.

T3 sequence (P11802 whole entry): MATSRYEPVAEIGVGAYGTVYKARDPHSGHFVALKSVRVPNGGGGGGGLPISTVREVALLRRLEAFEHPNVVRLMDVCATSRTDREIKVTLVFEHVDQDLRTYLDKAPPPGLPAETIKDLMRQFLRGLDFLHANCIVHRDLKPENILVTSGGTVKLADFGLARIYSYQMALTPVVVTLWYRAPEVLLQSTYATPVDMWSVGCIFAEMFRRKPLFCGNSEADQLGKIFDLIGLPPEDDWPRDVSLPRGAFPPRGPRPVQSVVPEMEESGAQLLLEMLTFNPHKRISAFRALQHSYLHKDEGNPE
T3 sequence (P30281 whole entry partner): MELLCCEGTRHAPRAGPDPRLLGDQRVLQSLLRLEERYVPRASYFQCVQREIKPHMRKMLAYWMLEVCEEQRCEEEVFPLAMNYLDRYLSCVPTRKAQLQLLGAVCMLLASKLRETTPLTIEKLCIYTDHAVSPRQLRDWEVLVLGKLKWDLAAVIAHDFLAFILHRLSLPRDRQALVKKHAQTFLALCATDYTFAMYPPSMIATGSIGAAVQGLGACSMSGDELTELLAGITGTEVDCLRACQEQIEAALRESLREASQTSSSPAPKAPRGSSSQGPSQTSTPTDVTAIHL
Chain of CDK9/cyclinT1 (P50750 whole entry): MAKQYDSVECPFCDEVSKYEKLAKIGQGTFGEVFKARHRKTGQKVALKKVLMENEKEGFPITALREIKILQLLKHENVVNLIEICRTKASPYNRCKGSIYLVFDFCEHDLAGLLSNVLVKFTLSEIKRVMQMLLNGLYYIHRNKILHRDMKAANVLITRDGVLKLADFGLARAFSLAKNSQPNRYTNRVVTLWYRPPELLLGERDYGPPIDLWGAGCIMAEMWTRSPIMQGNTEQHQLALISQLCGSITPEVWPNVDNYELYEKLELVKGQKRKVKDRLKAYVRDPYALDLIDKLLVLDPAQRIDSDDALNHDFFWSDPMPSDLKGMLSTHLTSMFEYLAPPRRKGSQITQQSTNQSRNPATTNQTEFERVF
Chain of CDK9/cyclinT1 (O60563 whole entry partner): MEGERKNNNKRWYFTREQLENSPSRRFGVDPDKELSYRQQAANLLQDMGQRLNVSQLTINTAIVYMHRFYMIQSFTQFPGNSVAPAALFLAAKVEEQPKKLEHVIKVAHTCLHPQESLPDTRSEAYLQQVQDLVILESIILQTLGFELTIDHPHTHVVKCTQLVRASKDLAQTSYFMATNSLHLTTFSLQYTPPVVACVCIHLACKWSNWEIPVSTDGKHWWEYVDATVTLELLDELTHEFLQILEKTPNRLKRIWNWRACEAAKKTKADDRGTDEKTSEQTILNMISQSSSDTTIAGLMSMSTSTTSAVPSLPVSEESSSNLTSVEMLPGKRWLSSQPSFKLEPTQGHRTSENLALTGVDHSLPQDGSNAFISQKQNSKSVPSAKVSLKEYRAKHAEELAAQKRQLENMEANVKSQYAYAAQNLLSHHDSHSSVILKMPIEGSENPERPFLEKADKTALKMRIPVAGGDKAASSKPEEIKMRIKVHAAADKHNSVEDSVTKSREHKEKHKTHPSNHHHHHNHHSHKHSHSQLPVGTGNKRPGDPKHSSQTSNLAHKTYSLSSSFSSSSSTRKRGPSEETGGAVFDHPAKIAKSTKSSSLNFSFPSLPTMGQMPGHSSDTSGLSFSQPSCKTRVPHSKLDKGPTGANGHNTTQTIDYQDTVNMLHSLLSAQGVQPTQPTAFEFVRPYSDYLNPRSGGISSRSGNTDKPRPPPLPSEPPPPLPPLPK
T5 sequence (P50750 whole entry): as the sequence (P50750 whole entry) above
T5 sequence (O60563 whole entry partner): as the sequence (O60563 whole entry partner) above
T1 sequence (P06493 whole entry): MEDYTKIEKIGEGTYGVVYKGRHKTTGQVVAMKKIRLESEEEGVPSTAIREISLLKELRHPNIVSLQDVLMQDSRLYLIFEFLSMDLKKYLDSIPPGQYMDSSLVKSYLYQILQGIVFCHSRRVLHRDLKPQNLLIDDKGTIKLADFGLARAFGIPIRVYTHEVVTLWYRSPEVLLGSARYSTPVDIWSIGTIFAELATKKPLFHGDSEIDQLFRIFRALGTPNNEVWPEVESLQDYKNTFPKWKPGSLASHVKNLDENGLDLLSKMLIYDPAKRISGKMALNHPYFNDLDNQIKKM
T1 sequence (P14635 whole entry partner): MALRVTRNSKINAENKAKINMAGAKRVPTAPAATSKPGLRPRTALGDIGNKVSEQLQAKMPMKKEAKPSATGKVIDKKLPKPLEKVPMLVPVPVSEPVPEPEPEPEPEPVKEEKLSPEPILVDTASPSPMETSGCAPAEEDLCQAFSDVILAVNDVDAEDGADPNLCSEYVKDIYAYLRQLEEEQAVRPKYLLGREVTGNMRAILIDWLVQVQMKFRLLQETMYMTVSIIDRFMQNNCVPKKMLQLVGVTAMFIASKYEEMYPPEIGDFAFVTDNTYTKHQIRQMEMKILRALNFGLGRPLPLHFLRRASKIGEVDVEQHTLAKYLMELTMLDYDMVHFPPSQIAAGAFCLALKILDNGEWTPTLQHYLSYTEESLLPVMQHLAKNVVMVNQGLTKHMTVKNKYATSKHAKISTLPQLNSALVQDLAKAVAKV
Chain of CDK3 (Q00526 whole entry): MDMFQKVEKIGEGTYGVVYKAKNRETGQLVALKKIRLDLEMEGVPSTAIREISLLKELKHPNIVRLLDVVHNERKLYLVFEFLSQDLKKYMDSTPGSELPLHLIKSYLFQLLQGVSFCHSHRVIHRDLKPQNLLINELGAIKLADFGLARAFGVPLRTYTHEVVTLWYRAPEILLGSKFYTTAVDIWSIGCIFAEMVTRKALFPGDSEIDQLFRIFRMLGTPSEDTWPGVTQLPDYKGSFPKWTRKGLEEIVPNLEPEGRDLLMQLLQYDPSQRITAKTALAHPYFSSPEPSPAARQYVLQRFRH
Chain of CDK3 (P24864 whole entry partner): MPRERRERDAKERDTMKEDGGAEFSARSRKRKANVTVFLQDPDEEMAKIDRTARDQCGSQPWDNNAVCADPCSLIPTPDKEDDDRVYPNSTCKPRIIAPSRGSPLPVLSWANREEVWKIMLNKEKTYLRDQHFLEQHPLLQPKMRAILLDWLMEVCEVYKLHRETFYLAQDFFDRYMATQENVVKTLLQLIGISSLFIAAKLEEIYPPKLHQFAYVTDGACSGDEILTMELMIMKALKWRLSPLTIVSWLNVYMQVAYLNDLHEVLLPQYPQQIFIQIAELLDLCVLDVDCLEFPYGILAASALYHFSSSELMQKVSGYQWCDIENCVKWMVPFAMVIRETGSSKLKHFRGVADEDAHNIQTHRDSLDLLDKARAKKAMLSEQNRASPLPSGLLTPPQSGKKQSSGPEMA
Chain of CDK5 (Q00535 whole entry): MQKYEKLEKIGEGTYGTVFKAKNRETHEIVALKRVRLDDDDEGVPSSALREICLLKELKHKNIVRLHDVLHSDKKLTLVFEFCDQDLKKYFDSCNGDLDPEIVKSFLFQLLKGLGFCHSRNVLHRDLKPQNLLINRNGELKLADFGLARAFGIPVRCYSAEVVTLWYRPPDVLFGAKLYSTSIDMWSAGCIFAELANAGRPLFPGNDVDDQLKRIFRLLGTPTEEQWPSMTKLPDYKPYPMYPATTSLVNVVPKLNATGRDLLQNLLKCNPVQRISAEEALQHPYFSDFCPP
Chain of CDK5 (Q15078 99-307 partner limits assumed): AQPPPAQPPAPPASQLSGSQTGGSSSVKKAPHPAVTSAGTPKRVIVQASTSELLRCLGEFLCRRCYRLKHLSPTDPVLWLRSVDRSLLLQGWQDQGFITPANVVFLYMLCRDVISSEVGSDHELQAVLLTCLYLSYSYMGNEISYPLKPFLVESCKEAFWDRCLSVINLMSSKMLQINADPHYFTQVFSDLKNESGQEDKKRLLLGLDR

For `Nc1ccn([C@@H]2O[C@H](CO)[C@@H](O)C2(F)F)c(=O)n1` [GCTB, gemcitabine, reference compound], the IC50 with MIA PaCa-2 cells [1] came to 1.04 ± 0.27 µM; in the series with AsPC-1, 0.956 ± 0.14 µM; in the series with BxPC-3, 0.388 ± 0.119 µM; in the series on PANC-1, 5.79 ± 4.21 µM. The “tumour growth inhibition (TGI)” value in series [2] is recorded as 36%. Also, in [3], the “pathological change in main organs (H&E)” value is listed as “no obvious pathological change”.

`CN(C)C(=O)c1cc2cnc(Nc3ccc(S(=O)(=O)Nc4ccccn4)cc3)nc2n1C1CCCC1` [2c] displayed an IC50 with MIA PaCa-2 cells [1] of 18.8 ± 5.54 µM. Further, on CDK9/cyclinT1, the inhibition at 0.05 µM stood at 99.1%. The “solubility (in words)” value in series [4] was “poor solubility”.

As for `Cc1cc(C)nc(NS(=O)(=O)c2ccc(Nc3ncc4cc(C(=O)N(C)C)n(C5CCCC5)c4n3)cc2)n1` [compound 1], the IC50 in the series on MIA PaCa-2 cells [1] stood at 4.98 ± 2.68 µM; in the series with AsPC-1, 2.6 ± 0.997 µM; with BxPC-3, 0.409 ± 0.06 µM; in the series with PANC-1, 3.68 ± 2.5 µM; on CDK1 [5], 516 nM; at CDK2 [6] it was 91.6 nM. The IC50 was 89 nM at CDK4 [7], greater than 10000 nM at CDK7 [8] and 5.6 nM at CDK9 [9]. Further, on CDK9/cyclinT1, the inhibition at 0.05 µM was 98.6%. Also, the inhibition at 1 µM on CDK1 [10] amounted to 65.2%; on CDK2 [11] it was 94.4%; at CDK3, 84.5%; on CDK4 [12] it was 89.2%; on CDK5, 72.1%; at CDK6, 78.1%. Further, the inhibition at 1 µM at CDK7 [13] stood at 5.3%; at CDK8, 0.8%; on CDK9 [14], 99%. The “effect on cell cycle” value in the series with MIA PaCa-2 cells [15] is “G2-arrested effect”.

A word on the IC50: it is the concentration needed to halve the response being measured.
